Experiment: Chemical stability of the active ingredients in the composition
Format: physicochemical
Conditions: in Composition 1
Description: The stability of the active ingredients per se were also measured under a wide variation of temperature conditions.

Structure (SMILES)	active ingredient content (2 wks@ 54° C.) [% wt.]	active ingredient content (2 wks@ −18° C.) [% wt.]	active ingredient content (Initial) [% wt.]
CCOc1nc(F)cc2nc(S(=O)(=O)Nc3c(Cl)cccc3C(=O)OC)nn12 [Cloransulam-methyl]	0.70	0.76	0.77
CSc1nnc(C(C)(C)C)c(=O)n1N [Metribuzin]	7.1	7.1	7.2
CCc1cccc(C)c1N(C(=O)CCl)C(C)COC (stereo not drawn) [S-metalachlor, S-metolachlor]	38.4	38.2	38.5

— patent publication US20250049034A1, “Composition” (Syngenta Crop Protection AG, priority 2021, published 2025)
